Values quoted from earlier work as cited in paper PMC3780409 (Methods in molecular biology (Clifton, N.J.), 2011).
“Also recorded” adds a separate entry of the source.

What was measured:
PAR1 [1] = settings: sepsis, SIRS, DIC, mice; cited from earlier work
PAR1 [2] = settings: cited from earlier work
[3] = tested on: thromboxane, ADP, collagen, or GPIb/IX/V receptors; settings: specificity; cited from earlier work
PAR1 [4] = settings: cited from earlier work; remark: listed apart in the source
PAR1 [5] = settings: cited from earlier work; remark: listed apart in the source
PAR1 [6] = settings: cited from earlier work; remark: listed apart in the source
PAR1 [7] = settings: human platelets, 5 μM for 1 min; cited from earlier work
endothelial cells = settings: cited from earlier work
[8] = tested on: PAR2, PAR4, CXCR1, CXCR2, S1P1, S1P3, or CCR5 receptors; settings: recombinantly transfected HEK293 cells; cited from earlier work

Substance: N-pal-RCLSSSAVANRS-NH2 [Pepducin P1pal-12]
- Outcome (PAR1 [1]): Reduced organ damage and inflammatory mediators, inhibited neutrophil migration
- Outcome (thrombin generation) (PAR1 [2]): Delayed thrombin generation
- aggregation of platelets induced by agonists for the thromboxane, ADP, collagen, or GPIb/IX/V receptors [3]: lack of an effect
- thrombin plus collagen-induced calcium signal (PAR1 [4]; platelets): significantly decreased; also recorded: Decreased collagen-induced calcium signal
- prothrombinase activity (PAR1 [4]; thrombin plus collagen): decreased the prothrombinase activity to levels induced by collagen alone
- p38 MAPK activation (PAR1 [5]; human platelets, collagen): blocked p38 MAPK activation
- collagen-induced platelet aggregation (PAR1 [5]; human platelets): Inhibition of collagen-induced platelet aggregation
- propagation of platelet–platelet thrombi (PAR1 [5]; human whole blood, arterial flow conditions): significantly reduced
- relaxation induced by TFLLRN or P1pal-19 (PAR1 [6]; precontracted rat aortic rings): decreased relaxation
- Outcome (thrombin-induced relaxation) (PAR1 [6]; rat aortic rings): Decreased thrombin-induced relaxation in rat aortic rings
- aggregation in response to 3 nM thrombin (PAR1 [7]): complete blockade
- decrease in SFLLRN (PAR1 agonist)-induced aggregation (PAR1 [7]): 75–95%
- responses to IL8, SDF-1α, S1P, thromboxane, MCP-1, RANTES (endothelial cells): no effect
- migration to ligands for PAR2, PAR4, CXCR1, CXCR2, S1P1, S1P3, or CCR5 receptors [8]: no effect
